What was measured:
Assay in all cases: NCI60 antitumor screening
Type in all cases: cell-based, human
[1] = test system: CCRF-CEM; settings: Homo sapiens; 10 μM single dose; CCRF-CEM (leukaemia); read-out: growth inhibition percent (GI%)
[2] = test system: HL-60(TB); settings: Homo sapiens; 10 μM single dose; HL-60(TB) (leukaemia); read-out: growth inhibition percent (GI%)
[3] = test system: MOLT-4; settings: Homo sapiens; 10 μM single dose; MOLT-4 (leukaemia); read-out: growth inhibition percent (GI%)
[4] = test system: RPMI-8226; settings: Homo sapiens; 10 μM single dose; RPMI-8226 (leukaemia); read-out: growth inhibition percent (GI%)
[5] = test system: A549/ATCC; settings: Homo sapiens; 10 μM single dose; A549/ATCC (non-small cell lung cancer); read-out: growth inhibition percent (GI%)
[6] = test system: HOP-92; settings: Homo sapiens; 10 μM single dose; HOP-92 (non-small cell lung cancer); read-out: growth inhibition percent (GI%)
[7] = test system: NCI-H226; settings: Homo sapiens; 10 μM single dose; NCI-H226 (non-small cell lung cancer); read-out: growth inhibition percent (GI%)
[8] = test system: NCI-H23; settings: Homo sapiens; 10 μM single dose; NCI-H23 (non-small cell lung cancer); read-out: growth inhibition percent (GI%)
[9] = test system: NCI-H522; settings: Homo sapiens; 10 μM single dose; NCI-H522 (non-small cell lung cancer); read-out: growth inhibition percent (GI%)
[10] = test system: HCC-2998; settings: Homo sapiens; 10 μM single dose; HCC-2998 (colon cancer); read-out: growth inhibition percent (GI%)
[11] = test system: HCT-15; settings: Homo sapiens; 10 μM single dose; HCT-15 (colon cancer); read-out: growth inhibition percent (GI%)
[12] = test system: HT29; settings: Homo sapiens, HT-29; 10 μM single dose; HT29 (colon cancer); read-out: growth inhibition percent (GI%)
[13] = test system: KM12; settings: Homo sapiens; 10 μM single dose; KM12 (colon cancer); read-out: growth inhibition percent (GI%)
[14] = test system: SF-268; settings: Homo sapiens; 10 μM single dose; SF-268 (CNS cancer); read-out: growth inhibition percent (GI%)
[15] = test system: SF-295; settings: Homo sapiens; 10 μM single dose; SF-295 (CNS cancer); read-out: growth inhibition percent (GI%)
[16] = test system: SNB-19; settings: Homo sapiens; 10 μM single dose; SNB-19 (CNS cancer); read-out: growth inhibition percent (GI%)
[17] = test system: SNB-75; settings: Homo sapiens; 10 μM single dose; SNB-75 (CNS cancer); read-out: growth inhibition percent (GI%)
[18] = test system: M14; settings: Homo sapiens; 10 μM single dose; M14 (melanoma); read-out: growth inhibition percent (GI%)
[19] = test system: SK-MEL-2; settings: Homo sapiens; 10 μM single dose; SK-MEL-2 (melanoma); read-out: growth inhibition percent (GI%)
[20] = test system: SK-MEL-5; settings: Homo sapiens; 10 μM single dose; SK-MEL-5 (melanoma); read-out: growth inhibition percent (GI%)
[21] = test system: UACC-257; settings: Homo sapiens; 10 μM single dose; UACC-257 (melanoma); read-out: growth inhibition percent (GI%)
[22] = test system: UACC-62; settings: Homo sapiens; 10 μM single dose; UACC-62 (melanoma); read-out: growth inhibition percent (GI%)
[23] = test system: IGROV1; settings: Homo sapiens, IGROV-1; 10 μM single dose; IGROV1 (ovarian cancer); read-out: growth inhibition percent (GI%)
[24] = test system: OVCAR-3; settings: Homo sapiens; 10 μM single dose; OVCAR-3 (ovarian cancer); read-out: growth inhibition percent (GI%)
[25] = test system: OVCAR-5; settings: Homo sapiens; 10 μM single dose; OVCAR-5 (ovarian cancer); read-out: growth inhibition percent (GI%)
[26] = test system: OVCAR-8; settings: Homo sapiens; 10 μM single dose; OVCAR-8 (ovarian cancer); read-out: growth inhibition percent (GI%)
[27] = test system: SK-OV-3; settings: Homo sapiens; 10 μM single dose; SK-OV-3 (ovarian cancer); read-out: growth inhibition percent (GI%)
[28] = test system: 786–0; settings: Homo sapiens; 10 μM single dose; 786–0 (renal cancer); read-out: growth inhibition percent (GI%)
[29] = test system: ACHN; settings: Homo sapiens; 10 μM single dose; ACHN (renal cancer); read-out: growth inhibition percent (GI%)
[30] = test system: CAKI-1; settings: Homo sapiens; 10 μM single dose; CAKI-1 (renal cancer); read-out: growth inhibition percent (GI%)
[31] = test system: RXF 393; settings: Homo sapiens; 10 μM single dose; RXF 393 (renal cancer); read-out: growth inhibition percent (GI%)
[32] = test system: SN12C; settings: Homo sapiens; 10 μM single dose; SN12C (renal cancer); read-out: growth inhibition percent (GI%)
[33] = test system: TK-10; settings: Homo sapiens; 10 μM single dose; TK-10 (renal cancer); read-out: growth inhibition percent (GI%)
[34] = test system: UO-31; settings: Homo sapiens; 10 μM single dose; UO-31 (renal cancer); read-out: growth inhibition percent (GI%)
[35] = test system: PC-3; settings: Homo sapiens; 10 μM single dose; PC-3 (prostate cancer); read-out: growth inhibition percent (GI%)
[36] = test system: DU-145; settings: Homo sapiens, DU-145; read-out: growth inhibition percent (GI%)
[37] = test system: MCF7; settings: Homo sapiens; 10 μM single dose; MCF7 (breast cancer); read-out: growth inhibition percent (GI%)
[38] = test system: BT-549; settings: Homo sapiens; 10 μM single dose; BT-549 (breast cancer); read-out: growth inhibition percent (GI%)
[39] = test system: MDA-MB-468; settings: Homo sapiens; 10 μM single dose; MDA-MB-468 (breast cancer); read-out: growth inhibition percent (GI%)

Cc1ccc(CSc2nc(-c3ccc(F)cc3)c(C#N)c(N3CCN(c4ccccc4)CC3)n2)cc1 [4p, 4-(4-Fluorophenyl)-2-((4-methylbenzyl)thio)-6-(4-phenylpiperazin-1-yl) pyrimidine-5-carbonitrile]
inhibition at 10 µM [1]: < 10% | inhibition at 10 µM [2]: < 10% | inhibition at 10 µM [3]: < 10% | inhibition at 10 µM [4]: 18.4% | inhibition at 10 µM [5]: 11.6% | inhibition at 10 µM [6]: < 10% | inhibition at 10 µM [7]: < 10% | inhibition at 10 µM [8]: < 10% | inhibition at 10 µM [9]: 13.8% | inhibition at 10 µM [10]: < 10% | inhibition at 10 µM [11]: 13.9% | inhibition at 10 µM [12]: < 10% | inhibition at 10 µM [13]: < 10% | inhibition at 10 µM [14]: 15.3% | inhibition at 10 µM [15]: < 10% | inhibition at 10 µM [16]: < 10% | inhibition at 10 µM [17]: 14.8% | inhibition at 10 µM [18]: 11% | inhibition at 10 µM [19]: 15.1% | inhibition at 10 µM [20]: 13.7% | inhibition at 10 µM [21]: 14.1% | inhibition at 10 µM [22]: 29.7% | inhibition at 10 µM [23]: < 10% | inhibition at 10 µM [24]: < 10% | inhibition at 10 µM [25]: < 10% | inhibition at 10 µM [26]: < 10% | inhibition at 10 µM [27]: < 10% | inhibition at 10 µM [28]: < 10% | inhibition at 10 µM [29]: < 10% | inhibition at 10 µM [30]: 16.6% | inhibition at 10 µM [31]: < 10% | inhibition at 10 µM [32]: < 10% | inhibition at 10 µM [33]: < 10% | inhibition at 10 µM [34]: < 10% | inhibition at 10 µM [35]: 25.1% | inhibition at 10 µM [36]: < 10% | inhibition at 10 µM [37]: 21.3% | inhibition at 10 µM [38]: < 10% | inhibition at 10 µM [39]: 13.6%
